In ChEMBL document CHEMBL5137134, “Developing the Natural Prenylflavone Artocarpin from Artocarpus hirsutus as a Potential Lead Targeting Pathogenic, Multidrug-Resistant Staphylococcus aureus, Persisters and Biofilms with No Detectable Resistance” (J Nat Prod, 2022):
≈ marks a conversion by molar mass, not a printed value. Calls of active or inactive are those of the source. No cut-off for these calls is given here.

Key:
Klebsiella pneumoniae = assay: Antibacterial activity against Klebsiella pneumoniae BAA 1705 assessed as reduction in bacterial growth incubated for 16 to 18 hrs by broth microdilution method; assay type: functional; settings: time 16-18 hrs
Acinetobacter baumannii [1] = assay: Antibacterial activity against Acinetobacter baumannii BAA 1605 assessed as reduction in bacterial growth incubated for 16 to 18 hrs by broth microdilution method; assay type: functional; settings: time 16-18 hrs
Escherichia coli = assay: Antibacterial activity against Escherichia coli ATCC 25922 assessed as reduction in bacterial growth incubated for 16 to 18 hrs in presence of PMBN by broth microdilution method; assay type: functional; settings: time 16-18 hrs
Acinetobacter baumannii [2] = assay: Antibacterial activity against Acinetobacter baumannii BAA 1605 assessed as reduction in bacterial growth incubated for 16 to 18 hrs in presence of PMBN by broth microdilution method; assay type: functional; settings: time 16-18 hrs
Staphylococcus aureus [3] = assay: Antibacterial activity against methicillin/tetracycline resistant Staphylococcus aureus NRS 100 assessed as reduction in bacterial growth incubated for 16 to 18 hrs by broth microdilution method; assay type: functional; settings: time 16-18 hrs
Staphylococcus aureus [4] = assay: Antibacterial activity against methicillin/levoflaxacin/meropenem/erythromycin resistant Staphylococcus aureus NRS 192 assessed as reduction in bacterial growth incubated for 16 to 18 hrs by broth microdilution method; assay type: functional; settings: time 16-18 hrs
Staphylococcus aureus [5] = assay: Antibacterial activity against methicillin/levoflaxacin/meropenem resistant Staphylococcus aureus NRS 191 assessed as reduction in bacterial growth incubated for 16 to 18 hrs by broth microdilution method; assay type: functional; settings: time 16-18 hrs
Staphylococcus aureus [6] = assay: Antibacterial activity against methicillin/levoflaxacin/meropenem resistant Staphylococcus aureus NRS 193 assessed as reduction in bacterial growth incubated for 16 to 18 hrs by broth microdilution method; assay type: functional; settings: time 16-18 hrs
Staphylococcus aureus [7] = assay: Antibacterial activity against methicillin/meropenem resistant Staphylococcus aureus NRS 194 assessed as reduction in bacterial growth incubated for 16 to 18 hrs by broth microdilution method; assay type: functional; settings: time 16-18 hrs
Staphylococcus aureus [8] = assay: Antibacterial activity against methicillin/levoflaxacin/vancomycin/meropenem/gentamycin/spectinomycin/teicoplanin resistant Staphylococcus aureus VRS 1 assessed as reduction in bacterial growth incubated for 16 to 18 hrs by broth microdilution method; assay type: functional; settings: time 16-18 hrs
Staphylococcus aureus [9] = assay: Antibacterial activity against methicillin/levoflaxacin/vancomycin/meropenem/gentamycin/spectinomycin/teicoplanin resistant Staphylococcus aureus VRS 4 assessed as reduction in bacterial growth incubated for 16 to 18 hrs by broth microdilution method; assay type: functional; settings: time 16-18 hrs
Staphylococcus aureus [10] = assay: Antibacterial activity against methicillin/levoflaxacin/vancomycin/meropenem/gentamycin/spectinomycin/teicoplanin resistant Staphylococcus aureus VRS 12 assessed as reduction in bacterial growth incubated for 16 to 18 hrs by broth microdilution method; assay type: functional; settings: time 16-18 hrs
Enterococcus [11] = assay: Antibacterial activity against vancomycin sensitive/methicillin resistant Enterococcus NR 31885 assessed as reduction in bacterial growth incubated for 16 to 18 hrs by broth microdilution method; assay type: functional; settings: time 16-18 hrs
Enterococcus [12] = assay: Antibacterial activity against vancomycin sensitive/methicillin resistant Enterococcus NR 31886 assessed as reduction in bacterial growth incubated for 16 to 18 hrs by broth microdilution method; assay type: functional; settings: time 16-18 hrs
Enterococcus [13] = assay: Antibacterial activity against vancomycin sensitive/methicillin resistant Enterococcus NR 31887 assessed as reduction in bacterial growth incubated for 16 to 18 hrs by broth microdilution method; assay type: functional; settings: time 16-18 hrs
Enterococcus [14] = assay: Antibacterial activity against vancomycin/methicillin/levoflaxacin/minocycline resistant Enterococcus NR 31909 assessed as reduction in bacterial growth incubated for 16 to 18 hrs by broth microdilution method; assay type: functional; settings: time 16-18 hrs
Staphylococcus aureus [15] = assay: Bactericidal activity against Staphylococcus aureus ATCC 29213 assessed as reduction in log10 CFU at 2.5 times MIC after 5 mins by time kill assay; assay type: functional
Staphylococcus aureus [16] = assay: Bactericidal activity against Staphylococcus aureus ATCC 29213 assessed as reduction in log10 CFU at 10 times MIC after 5 mins by time kill assay; assay type: functional
Staphylococcus aureus [17] = assay: Bactericidal activity against Staphylococcus aureus ATCC 29213 assessed as inhibition of bacterial regrowth at 10 time MIC after 24 hrs by time kill assay; assay type: functional, organism-based
Staphylococcus aureus [18] = assay: Synergistic antibacterial activity against Staphylococcus aureus ATCC 29213 assessed as reduction in bacterial growth incubated for 24 hrs in presence of levofloxacin by checkerboard method; assay type: functional
Staphylococcus aureus [19] = assay: Synergistic antibacterial activity against Staphylococcus aureus ATCC 29213 assessed as reduction in bacterial growth incubated for 24 hrs in presence of meropenem by checkerboard method; assay type: functional
Staphylococcus aureus [20] = assay: Synergistic antibacterial activity against Staphylococcus aureus ATCC 29213 assessed as reduction in bacterial growth incubated for 24 hrs in presence of rifampicin by checkerboard method; assay type: functional
Staphylococcus aureus [21] = assay: Synergistic antibacterial activity against Staphylococcus aureus ATCC 29213 assessed as reduction in bacterial growth incubated for 24 hrs in presence of vancomycin by checkerboard method; assay type: functional
Staphylococcus aureus [22] = assay: Post antibiotic effect against Staphylococcus aureus ATCC 29213 assessed as time required for 1 log10 increase in CFU at 1 time MIC incubated for 1 hr followed by replacement with drug free medium and measured every 1 hr (reference value: 2 hrs); assay type: functional
Staphylococcus aureus [23] = assay: Post antibiotic effect against Staphylococcus aureus ATCC 29213 assessed as time required for 1 log10 increase in CFU at 10 times MIC incubated for 1 hr followed by replacement with drug free medium and measured every 1 hr (reference value: 2 hrs); assay type: functional
Staphylococcus aureus [24] = assay: Post antibiotic effect against Staphylococcus aureus ATCC 29213 at 1 time MIC incubated for 1 hr followed by replacement with drug free medium and measured every 1 hr (reference value: 0 hr); assay type: functional
Staphylococcus aureus [25] = assay: Bactericidal activity against Staphylococcus aureus ATCC 29213 assessed as increase in dead bacterial cells at 2.5 times MIC after 30 mins by confocal laser scanning microscopy analysis; assay type: functional, organism-based
Staphylococcus aureus [26] = assay: Bactericidal activity against Staphylococcus aureus ATCC 29213 assessed as visible cell destruction at 2.5 times MIC after 30 mins by scanning electron microscopy analysis; assay type: functional, organism-based
Staphylococcus aureus [27] = assay: Bactericidal activity against Staphylococcus aureus ATCC 29213 assessed as increase in extracellular ATP level after 1 hr by ATP bioluminescence assay; assay type: functional, organism-based; settings: DDE = dose-dependent effect
Staphylococcus aureus [28] = assay: Bactericidal activity against Staphylococcus aureus ATCC 29213 assessed as decrease in intracellular ATP level after 1 hr by ATP bioluminescence assay; assay type: functional, organism-based; settings: DDE = dose-dependent effect
Staphylococcus aureus [29] = assay: Antibacterial activity against Staphylococcus aureus ATCC 29213 infected in BALB/c mouse neutropenic thigh infection model assessed as reduction in thigh bacterial load at 50 mg/kg, ip pre-infected with bacteria for 3 hrs followed by compound addition twice at a interval of 3 hrs and measured after 24 hrs; assay type: functional
Staphylococcus aureus [30] = assay: Antibacterial activity against Staphylococcus aureus ATCC 29213 infected in Swiss mouse skin infection model assessed as reduction in skin bacterial load at 1 % dose administered twice daily for 4 days; assay type: functional; settings: time 4 day
Staphylococcus aureus [31] = assay: Synergistic antibacterial activity against Staphylococcus aureus ATCC 29213 assessed as fractional inhibitory concentration incubated for 24 hrs in presence of gentamycin by checkerboard method; assay type: functional
Staphylococcus aureus [32] = assay: Synergistic antibacterial activity against Staphylococcus aureus ATCC 29213 assessed as fractional inhibitory concentration incubated for 24 hrs in presence of levofloxacin by checkerboard method; assay type: functional
Staphylococcus aureus [33] = assay: Synergistic antibacterial activity against Staphylococcus aureus ATCC 29213 assessed as fractional inhibitory concentration incubated for 24 hrs in presence of meropenem by checkerboard method; assay type: functional
Staphylococcus aureus [34] = assay: Synergistic antibacterial activity against Staphylococcus aureus ATCC 29213 assessed as fractional inhibitory concentration incubated for 24 hrs in presence of vancomycin by checkerboard method; assay type: functional
Staphylococcus aureus [35] = assay: microbe, parasite or virus in culture; settings: ATCC 29213
Description: Antibacterial activity against Staphylococcus aureus ATCC 29213 assessed as reduction in bacterial growth incubated for 16 to 18 hrs by broth microdilution method

## COc1cc2oc(-c3ccc(O)cc3O)c(CC=C(C)C)c(=O)c2c(O)c1/C=C/C(C)C [ARTOCARPIN]
Klebsiella pneumoniae
  MIC: > 128 µg/mL
Acinetobacter baumannii [1]
  MIC: > 128 µg/mL
Escherichia coli
  MIC: 8 µg/mL
Acinetobacter baumannii [2]
  MIC: 4 µg/mL
Staphylococcus aureus [3]
  MIC: 4 µg/mL (≈ 9.16 µM)
Staphylococcus aureus [4]
  MIC: 4 µg/mL (≈ 9.16 µM)
Staphylococcus aureus [5]
  MIC: 4 µg/mL (≈ 9.16 µM)
Staphylococcus aureus [6]
  MIC: 4 µg/mL (≈ 9.16 µM)
Staphylococcus aureus [7]
  MIC: 4 µg/mL (≈ 9.16 µM)
Staphylococcus aureus [8]
  MIC: 4 µg/mL (≈ 9.16 µM)
Staphylococcus aureus [9]
  MIC: 4 µg/mL (≈ 9.16 µM)
Staphylococcus aureus [10]
  MIC: 4 µg/mL (≈ 9.16 µM)
Enterococcus [11]
  MIC: 2 µg/mL (≈ 4.58 µM)
Enterococcus [12]
  MIC: 2 µg/mL (≈ 4.58 µM)
Enterococcus [13]
  MIC: 2 µg/mL (≈ 4.58 µM)
Enterococcus [14]
  MIC: 1 µg/mL (≈ 2.29 µM)
Staphylococcus aureus [15]
  Activity: 1.4 log10CFU/ml
Staphylococcus aureus [16]
  Activity: 2.07 log10CFU/ml
Staphylococcus aureus [17]
  Activity: Active
Staphylococcus aureus [18]
  MIC: 2 µg/mL
Staphylococcus aureus [19]
  MIC: 2 µg/mL
Staphylococcus aureus [20]
  MIC: 2 µg/mL
Staphylococcus aureus [21]
  MIC: 2 µg/mL
Staphylococcus aureus [22]
  Time: 5 h
Staphylococcus aureus [23]
  Time: 24 h
Staphylococcus aureus [24]
  PAE: 3 h
Staphylococcus aureus [25]
  Activity: Active
Staphylococcus aureus [26]
  Activity: Active
Staphylococcus aureus [27]
  Activity: Dde
Staphylococcus aureus [28]
  Activity: Dde
Staphylococcus aureus [29]
  Activity: 0.6 log10CFU/g
Staphylococcus aureus [30]
  Activity: 1 log10CFU/g
Staphylococcus aureus [31]
  FIC: 0.015
Staphylococcus aureus [32]
  FIC: 0.5
Staphylococcus aureus [33]
  FIC: 0.5
Staphylococcus aureus [34]
  FIC: 0.5
Staphylococcus aureus [35]
  MIC: 2 µg/mL (≈ 4.58 µM)
